# Results from ChEMBL document CHEMBL5338757, “Phototunable Cell Killing by Photochromic Diarylethene of Thiazoyl and Thienyl Derivatives” (J Med Chem, 2023).
# Calls of active or inactive are those of the source. The calls are words filed in the database; no cut-off is given here.
# Columns and labels:
# HeLa [1] = assay: Phototoxicity against human HeLa cells assessed as cell death at 0.02 to 5 ppm preincubated for 18 hrs under dark condition followed by medium replacement and 436 nm blue light irradiation for 2 mins and measured after 2 hrs by microscopic analysis; assay type: functional, cell-based; settings: dose 0.02-5 ppm, time 20.03 hrs
# DNA [2] = assay: Binding affinity to DNA (unknown origin) assessed as redshift in absorption maxima at 15 uM with […] blue light irradiation incubated for 24 hrs by fluorescence based assay; assay type: nucleic-acid assay
# DNA [3] = assay: Binding affinity to DNA (unknown origin) at 15 uM with 436 nm blue light irradiation incubated for 24 hrs by fluorescence based assay; assay type: nucleic-acid assay
# DNA [4] = assay: Binding affinity to DNA (unknown origin) upto 25 uM incubated for 24 hrs in presence of ethidium bromide by […]; assay type: nucleic-acid assay
# HeLa [5] = assay: Phototoxicity against human HeLa cells assessed as cell death at 0.05 ppm incubated for 18 hrs followed by medium replacement and 436 nm blue light irradiation for 2 mins and measured after 2 hrs by microscopic analysis; assay type: functional, cell-based
# HeLa [6] = assay: Phototoxicity against human HeLa cells assessed as ATM kinase activation at 1 ppm with 365 and 436 nm light irradiation by Western blot analysis; assay type: functional, cell-based
# HeLa [7] = assay: Phototoxicity against human HeLa cells assessed as gamma-H2AX activation at 1 ppm with 365 and 436 nm light irradiation by Western blot analysis; assay type: functional, cell-based
# HeLa [8] = assay: Phototoxicity against human HeLa cells assessed as BAX activation at 1 ppm with 365 and 436 nm light irradiation by Western blot analysis; assay type: functional, cell-based
# HeLa [9] = assay: Phototoxicity against human HeLa cells assessed as BAK activation at 1 ppm with 365 and 436 nm light irradiation by Western blot analysis; assay type: functional, cell-based
# HeLa [10] = assay: Phototoxicity against human HeLa cells assessed as cleaved caspase-3 activation at 1 ppm with 365 and 436 nm light irradiation by Western blot analysis; assay type: functional, cell-based; settings: time 18.0 hrs
# DNA [11] = assay: Binding affinity to DNA (unknown origin) in aqueous media at 15 uM at 436 nm blue light irradiation incubated for 24 hrs by fluorescence based assay; assay type: nucleic-acid assay
# DNA [12] = assay: Binding affinity to DNA (unknown origin) in aqueous media at 15 uM with 436 nm blue light irradiation incubated for 24 hrs by CD spectra analysis; assay type: nucleic-acid assay
# DNA [13] = assay: Binding affinity to DNA (unknown origin) in aqueous media at 15 uM with > 546 nm blue light irradiation incubated for 24 hrs by CD spectra analysis; assay type: nucleic-acid assay
# HeLa [14] = assay: Phototoxicity against human HeLa cells assessed as cell death at 0.5 ppm preincubated for 1 day followed by UV irradiation for 20 sec; assay type: functional, cell-based; settings: time 86420.0 sec
# HeLa [15] = assay: Phototoxicity against human HeLa cells assessed as cell shrinkage at 1 nM preincubated for 18 hrs under dark condition followed by medium replacement and 436 nm blue light irradiation for 2 mins and measured after 2 hrs by microscopic analysis; assay type: functional, cell-based; settings: time 20.03 hrs
# HeLa [16] = assay: Phototoxicity against human HeLa cells assessed as cell rounding at 1 nM preincubated for 18 hrs under dark condition followed by medium replacement and 436 nm blue light irradiation for 2 mins and measured after 2 hrs by microscopic analysis; assay type: functional, cell-based; settings: time 20.03 hrs
# HeLa [17] = assay: Phototoxicity against human HeLa cells assessed as ATM kinase activation at 0.1 ppm with 436 nm blue light irradiation by Western blot analysis; assay type: functional, cell-based; settings: time 20.03 hrs
# HeLa [18] = assay: Phototoxicity against human HeLa cells assessed as gamma-H2AX activation at 0.1 ppm with 436 nm blue light irradiation by Western blot analysis; assay type: functional, cell-based; settings: time 20.03 hrs
# HeLa [19] = assay: Phototoxicity against human HeLa cells assessed as CHK1 activation at 0.1 ppm with 436 nm blue light irradiation by Western blot analysis; assay type: functional, cell-based; settings: time 20.03 hrs
# HeLa [20] = assay: Phototoxicity against human HeLa cells assessed as CHK2 activation at 0.1 ppm with 436 nm blue light irradiation by Western blot analysis; assay type: functional, cell-based; settings: time 20.03 hrs
# HeLa [21] = assay: Phototoxicity against human HeLa cells assessed as BAX activation at 0.1 ppm with 436 nm blue light irradiation by Western blot analysis; assay type: functional, cell-based; settings: time 20.03 hrs
# HeLa [22] = assay: Phototoxicity against human HeLa cells assessed as BAK activation at 0.1 ppm with 436 nm blue light irradiation by Western blot analysis; assay type: functional, cell-based; settings: time 20.03 hrs
# HeLa [23] = assay: Phototoxicity against human HeLa cells assessed as caspase-3 activation at 0.1 ppm with 436 nm blue light irradiation by Western blot analysis; assay type: functional, cell-based; settings: time 20.03 hrs
# HeLa [24] = assay: Phototoxicity against human HeLa cells assessed as activation of BAX multiplication at 0.1 ppm with 436 nm blue light irradiation by Western blot analysis; assay type: functional, cell-based
# HeLa [25] = assay: Phototoxicity in human HeLa cells assessed as cell damage at 0.2 ppm pre-irradiated with 546 nm green light followed by 436 nm blue light irradiation; assay type: functional, cell-based
# HeLa [26] = assay: Phototoxicity in human HeLa cells assessed as cell damage at 0.2 ppm irradiated with 546 nm green light; assay type: functional, cell-based
# HeLa [27] = assay: Phototoxicity against human HeLa cells assessed as cell death at 5 ppm incubated for 18 hrs followed by medium replacement and 436 nm blue light irradiation for 2 mins and measured after 2 hrs by microscopic analysis; assay type: functional, cell-based; settings: time 20.03 hrs
smiles,measurement,setting,value
C[C@]12SC(c3ccccc3)=CC1=C1C(=C3N=C(c4ccccc4)S[C@@]32C)C(F)(F)C(F)(F)C1(F)F,Activity,HeLa [1],Active
same,Activity,DNA [2],Active
same,Activity,DNA [3],Active
same,KSV,DNA [4],27 10^3/M
CC12C=C(c3ccccc3)SC1=C1C(=C3SC(c4ccccc4)=NC32C)C(F)(F)C(F)(F)C1(F)F (stereo not given),Activity,HeLa [5],Active
Cc1sc(-c2ccccc2)nc1C1=C(c2nc(-c3ccccc3)sc2C)C(F)(F)C(F)(F)C1(F)F,Activity,HeLa [1],inactive
same,Activity,HeLa [6],inactive
same,Activity,HeLa [7],inactive
same,Activity,HeLa [8],inactive
same,Activity,HeLa [9],inactive
same,Activity,HeLa [10],inactive
same,Activity,DNA [2],Active
same,Activity,DNA [3],Active
same,Activity,DNA [11],Active
same,Activity,DNA [12],Active
same,Activity,DNA [13],inactive
same,KSV,DNA [4],1.6 10^3/M
same,Activity,HeLa [14],inactive
CC12C=C(c3ccccc3)SC1=C1C(=C3SC(c4ccccc4)=CC32C)C(F)(F)C(F)(F)C1(F)F (stereo not given),Activity,HeLa [5],Active
CC12SC(c3ccccc3)=CC1=C1C(=C3C=C(c4ccccc4)SC32C)C(F)(F)C(F)(F)C1(F)F (stereo not given),Activity,HeLa [1],inactive
same,Activity,DNA [2],inactive
same,Activity,DNA [3],Active
same,KSV,DNA [4],27 10^3/M
CC12SC(c3ccccc3)=NC1=C1C(=C3N=C(c4ccccc4)SC32C)C(F)(F)C(F)(F)C1(F)F (stereo not given),Activity,HeLa [1],Active
same,Activity,HeLa [15],Active
same,Activity,HeLa [16],Active
same,Activity,HeLa [17],Active
same,Activity,HeLa [18],Active
same,Activity,HeLa [19],Active
same,Activity,HeLa [20],Active
same,Activity,HeLa [21],Active
same,Activity,HeLa [22],Active
same,Activity,HeLa [23],Active
same,Activity,HeLa [24],Active
same,Activity,DNA [2],Active
same,Activity,DNA [3],Active
same,Activity,HeLa [25],Active
same,KSV,DNA [4],27 10^3/M
same,Activity,HeLa [26],Active
Cc1sc(-c2ccccc2)cc1C1=C(c2nc(-c3ccccc3)sc2C)C(F)(F)C(F)(F)C1(F)F,Activity,DNA [2],Active
same,Activity,DNA [3],Active
same,KSV,DNA [4],1.6 10^3/M
Cc1cc(-c2ccccc2)sc1C1=C(c2sc(-c3ccccc3)cc2C)C(F)(F)C(F)(F)C1(F)F,Activity,HeLa [27],inactive
Cc1cc(-c2ccccc2)sc1C1=C(c2sc(-c3ccccc3)nc2C)C(F)(F)C(F)(F)C1(F)F,Activity,HeLa [27],inactive
Cc1nc(-c2ccccc2)sc1C1=C(c2sc(-c3ccccc3)nc2C)C(F)(F)C(F)(F)C1(F)F,Activity,HeLa [27],inactive
CC12N=C(c3ccccc3)SC1=C1C(=C3SC(c4ccccc4)=NC32C)C(F)(F)C(F)(F)C1(F)F (stereo not given),Activity,HeLa [5],Active
Cc1sc(-c2ccccc2)cc1C1=C(c2cc(-c3ccccc3)sc2C)C(F)(F)C(F)(F)C1(F)F,Activity,HeLa [1],inactive
same,Activity,DNA [2],inactive
same,Activity,DNA [3],Active
same,KSV,DNA [4],1.6 10^3/M
